From PubChem BioAssay (NCI)
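Grown in 96-well plates, cells were treated for 48 hours with each compound at five concentrations. Insufficient inhibition: endpoint recorded as highest concentration tested. Abbreviation: GI50, concentration required for 50% inhibition of growth. TGI marks complete inhibition of growth.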

Experiments:
Assay in all cases: NCI-60 cell line screen, 48 h
[1] = test system: A549 NSCLC
[2] = test system: COLO 205 colon
[3] = test system: EKVX NSCLC
[4] = test system: HL-60(TB) leukemia
[5] = test system: HOP-62 NSCLC
[6] = test system: HT29 colon
[7] = test system: OVCAR-8 ovarian
[8] = test system: SF-539 CNS
[9] = test system: SW-620 colon
[10] = test system: U251 CNS

CN(C)c1ccc(-c2cc(-c3ccc(Nc4nc(Nc5ccc(Cl)cc5)nc(Nc5ccc(Cl)cc5)n4)cc3)no2)cc1
GI50 [1]: 5.12 µM | TGI [1]: 27.5 µM | GI50 [2]: 2.89 µM | TGI [2]: 16 µM | GI50 [3]: 10.5 µM | TGI [3]: > 100 µM | GI50 [4]: 2.01 µM | TGI [4]: 4.73 µM | GI50 [5]: 4.8 µM | TGI [5]: 24.1 µM | GI50 [6]: 5.08 µM | TGI [6]: 66.5 µM | GI50 [7]: 5.91 µM | TGI [7]: 39 µM | GI50 [8]: 5.18 µM | TGI [8]: 21.2 µM | GI50 [9]: 6.28 µM | TGI [9]: > 100 µM | GI50 [10]: 6.27 µM | TGI [10]: 61.8 µM

Cn1ccnc1C(=O)/C=C/c1ccc(CC(=O)Nc2ccc(Br)cc2)cc1
GI50 [1]: 4.68 µM | TGI [1]: 13.2 µM | GI50 [2]: 3.56 µM | TGI [2]: 8.28 µM | GI50 [3]: 2.76 µM | TGI [3]: 11.7 µM | GI50 [4]: 4.58 µM | TGI [4]: > 16.7 µM | GI50 [5]: 3.34 µM | TGI [5]: 7.9 µM | GI50 [6]: 4.05 µM | TGI [6]: 9.96 µM | GI50 [7]: 5.39 µM | TGI [7]: > 16.7 µM | GI50 [8]: 2.43 µM | TGI [8]: 4.81 µM | GI50 [9]: 4.15 µM | TGI [9]: 13.4 µM | GI50 [10]: 1.97 µM | TGI [10]: 4.51 µM

Cc1ccc(-c2nnc(-c3ccc4ccccc4c3)o2)cc1
TGI [1]: > 100 µM | TGI [2]: > 100 µM | TGI [3]: > 100 µM | TGI [4]: > 21.9 µM | TGI [5]: > 77.4 µM | TGI [6]: > 100 µM | TGI [7]: > 100 µM | TGI [8]: > 60.2 µM | TGI [9]: > 100 µM | TGI [10]: > 100 µM

O=C(O)CCSC(=O)Nc1cccc(F)c1
TGI [1]: > 100 µM | TGI [2]: > 100 µM | TGI [3]: > 100 µM | TGI [4]: > 100 µM | TGI [5]: 95.7 µM | TGI [6]: > 100 µM | TGI [7]: > 100 µM | TGI [8]: > 100 µM | TGI [9]: > 100 µM | TGI [10]: > 100 µM

COc1ccc2c(c1)C1(C=N2)CCN(C(C)=O)CC1
TGI [1]: > 100 µM | TGI [2]: > 100 µM | TGI [3]: > 100 µM | TGI [4]: > 100 µM | TGI [5]: > 100 µM | TGI [6]: > 100 µM | TGI [7]: > 100 µM | TGI [8]: > 100 µM | TGI [9]: > 100 µM | TGI [10]: > 100 µM

CC1(C)COC(c2ccc(C(F)(F)F)cc2C(O)c2ccc3ccccc3c2)=N1 (stereo not drawn)
GI50 [1]: > 10 µM | TGI [1]: > 100 µM | GI50 [2]: > 100 µM | TGI [2]: > 100 µM | GI50 [3]: > 100 µM | TGI [3]: > 100 µM | GI50 [4]: > 10 µM | TGI [4]: > 100 µM | GI50 [5]: > 100 µM | TGI [5]: > 100 µM | TGI [6]: > 10 µM | GI50 [7]: > 100 µM | TGI [7]: > 100 µM | TGI [8]: > 100 µM | GI50 [9]: > 100 µM | TGI [9]: > 100 µM | GI50 [10]: > 100 µM | TGI [10]: > 100 µM

Cc1cc(=O)n2[nH]c(-c3ccc(C(C)(C)C)cc3)cc2n1
GI50 [1]: 11.6 µM | TGI [1]: > 100 µM | GI50 [2]: 11.3 µM | TGI [2]: > 100 µM | GI50 [3]: 3.88 µM | TGI [3]: 59.1 µM | GI50 [4]: 6.9 µM | TGI [4]: 93.8 µM | GI50 [5]: 17.5 µM | TGI [5]: 76.9 µM | GI50 [6]: 5.12 µM | TGI [6]: > 100 µM | GI50 [7]: 11.2 µM | TGI [7]: > 100 µM | GI50 [8]: 9.01 µM | TGI [8]: > 100 µM | GI50 [9]: 4.4 µM | TGI [9]: > 100 µM | GI50 [10]: 3.24 µM | TGI [10]: 64.5 µM

Cc1nc2c(nc1C)C(=O)c1ccccc1C2=O
TGI [1]: 3.41 µM | TGI [2]: 5.57 µM | TGI [3]: 41.5 µM | TGI [4]: 13.7 µM | TGI [5]: 10.3 µM | TGI [6]: 11.7 µM | TGI [7]: 42.9 µM | TGI [8]: 11.2 µM | TGI [9]: 10.1 µM | TGI [10]: 34.6 µM

O[C@H]1[C@H]2c3cc4c(cc3CN3CCC(=C[C@@H]1O)[C@H]23)OCO4
TGI [1]: 13.1 µM | TGI [2]: 2.79 µM | TGI [3]: 10.8 µM | TGI [4]: 6.37 µM | TGI [5]: > 27.4 µM | TGI [6]: 30.6 µM | TGI [7]: 7.55 µM | TGI [8]: 5.74 µM | TGI [9]: > 36.9 µM | TGI [10]: > 26.7 µM

COc1ccccc1NC(=O)CC(=O)n1nc(C)c(N=Nc2ccccc2C(=O)O)c1C
TGI [1]: > 100 µM | TGI [2]: > 100 µM | TGI [3]: 83.5 µM | TGI [4]: > 100 µM | TGI [5]: > 100 µM | TGI [6]: > 100 µM | TGI [7]: > 100 µM | TGI [8]: > 100 µM | TGI [9]: > 100 µM | TGI [10]: > 100 µM

COc1cc2nc(C)nc(N[C@H](C)c3cc(N)cc(C(F)(F)F)c3)c2cc1O[C@H]1CCOC1
GI50 [1]: 14.8 µM | TGI [1]: 32.4 µM | GI50 [2]: 15.8 µM | TGI [2]: 33.4 µM | GI50 [3]: 11.1 µM | TGI [3]: 26.5 µM | GI50 [4]: 14 µM | TGI [4]: 39.2 µM | GI50 [5]: 11.1 µM | TGI [5]: 25.6 µM | GI50 [6]: 13.4 µM | TGI [6]: 28.4 µM | GI50 [7]: 15.5 µM | TGI [7]: 42.8 µM | GI50 [8]: 12.4 µM | TGI [8]: 25.1 µM | GI50 [9]: 14.6 µM | TGI [9]: 31.3 µM | GI50 [10]: 10.6 µM | TGI [10]: 23.7 µM

CNC(=O)c1ccccc1Nc1nc(Nc2ccc(N3CCOCC3)cc2OC)ncc1Cl
GI50 [1]: 0.344 µM | TGI [1]: > 20.4 µM | GI50 [2]: 0.103 µM | TGI [2]: 0.59 µM | GI50 [3]: 0.274 µM | TGI [3]: > 24.7 µM | GI50 [4]: 0.206 µM | TGI [4]: > 57.1 µM | GI50 [5]: 0.341 µM | TGI [5]: 9.07 µM | GI50 [6]: 0.0714 µM | TGI [6]: 4.73 µM | GI50 [7]: 2.29 µM | TGI [7]: > 100 µM | GI50 [8]: 1.29 µM | TGI [8]: 7.68 µM | GI50 [9]: 0.314 µM | TGI [9]: > 100 µM | GI50 [10]: 1.94 µM | TGI [10]: > 47.8 µM

Cc1cnc(NC(=O)C(Cc2ccccc2)NC(=O)c2ccccc2)s1 (stereo not drawn)
GI50 [1]: 3.32 µM | TGI [1]: 15.8 µM | GI50 [2]: 13.5 µM | TGI [2]: 29.5 µM | GI50 [3]: 19.5 µM | TGI [3]: 47.6 µM | GI50 [4]: 21.2 µM | TGI [4]: 51.5 µM | GI50 [5]: 10 µM | TGI [5]: 28 µM | GI50 [6]: 26 µM | TGI [6]: > 100 µM | GI50 [7]: 2.38 µM | TGI [7]: 9.16 µM | GI50 [8]: 14.2 µM | TGI [8]: 31.1 µM | GI50 [9]: 14 µM | TGI [9]: 30.6 µM | GI50 [10]: 5.25 µM | TGI [10]: 19.3 µM

O=C1c2cccnc2-c2nc(-c3ccccc3[N+](=O)[O-])cc3c2c1nc1ccccc13
GI50 [1]: 14.4 µM | TGI [1]: 30.1 µM | GI50 [2]: 24.4 µM | TGI [2]: > 62.4 µM | GI50 [3]: 31.6 µM | TGI [3]: > 74.3 µM | GI50 [4]: > 100 µM | TGI [4]: > 100 µM | GI50 [5]: 16 µM | TGI [5]: 41 µM | GI50 [6]: 17.2 µM | TGI [6]: 33.2 µM | GI50 [7]: 13.1 µM | TGI [7]: 44.2 µM | GI50 [8]: 6.3 µM | TGI [8]: 24.3 µM | GI50 [9]: 3.27 µM | TGI [9]: 18.9 µM | GI50 [10]: 4 µM | TGI [10]: 19.6 µM

Cc1cc(=O)[nH]c2cc3oc4ccccc4c3cc12
TGI [1]: > 100 µM | TGI [2]: > 100 µM | TGI [3]: > 100 µM | TGI [4]: 59.3 µM | TGI [5]: > 100 µM | TGI [6]: > 100 µM | TGI [7]: > 100 µM | TGI [8]: > 100 µM | TGI [9]: > 100 µM | TGI [10]: > 86.6 µM

O=C(/C=C/c1ccccc1Cl)c1ccc(Cl)c(Cl)c1
TGI [1]: 40.8 µM | TGI [2]: > 100 µM | TGI [3]: 37.4 µM | TGI [4]: 60.7 µM | TGI [5]: 57.6 µM | TGI [6]: 36 µM | TGI [7]: 33 µM | TGI [8]: 33.1 µM | TGI [9]: 28.3 µM | TGI [10]: 31.1 µM
